In ChEMBL document CHEMBL1201862, “PubChem BioAssay data set” (2004):
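Five concentrations, 48 hours, 96-well plates. GI50 marks 50% less growth.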 The source made the active and inactive calls. Rule as the data show it: active = GI50 up to about 1.1 µM and inactive = higher.

Columns and labels:
Experiment in all cases: NCI anticancer screen, dose series, 48 h
SK-MEL-2 = system: SK-MEL-2
SF-295 = system: SF-295
NCI-H23 = system: NCI-H23
BT-549 = system: BT-549
NCI-H460 = system: NCI-H460
LOX IMVI = system: LOX IMVI
HOP-62 = system: HOP-62
TK-10 = system: TK-10
NCI-H522 = system: NCI-H522
SF-268 = system: SF-268
HOP-92 = system: HOP-92
SW-620 = system: SW-620
SR = system: SR
HCT-116 = system: HCT-116
OVCAR-4 = system: OVCAR-4
DU-145 = system: DU-145
MCF7 = system: MCF7
SK-MEL-5 = system: SK-MEL-5
RPMI-8226 = system: RPMI-8226
HL-60 = system: HL-60

SMILES | GI50 (SK-MEL-2) | GI50 (SF-295) | GI50 (NCI-H23) | GI50 (BT-549) | GI50 (NCI-H460) | GI50 (LOX IMVI) | GI50 (HOP-62) | GI50 (TK-10) | GI50 (NCI-H522) | GI50 (SF-268) | GI50 (HOP-92) | GI50 (SW-620) | GI50 (SR) | GI50 (HCT-116) | GI50 (OVCAR-4) | GI50 (DU-145) | GI50 (MCF7) | GI50 (SK-MEL-5) | GI50 (RPMI-8226) | GI50 (HL-60)
C/C=C/[C@H](O[Si](C)(C)C(C)(C)C)[C@@H](O)/C=C/C(=O)OCC | 26.5 µM (inactive) | 20.9 µM (inactive) | 38.7 µM (inactive) | 31.8 µM (inactive) | 15.9 µM (inactive) | 17.5 µM (inactive) | 17 µM (inactive) | 27.9 µM (inactive) | 16.7 µM (inactive) | 24 µM (inactive) | 23.8 µM (inactive) | 19.3 µM (inactive) | 21.1 µM (inactive) | 17.9 µM (inactive) | 11.9 µM (inactive) | 43.8 µM (inactive) | 21.1 µM (inactive) | 16.3 µM (inactive) | 2.04 µM (inactive) | –
Clc1ccc(CSCCc2ccncc2)cc1Cl | 15.8 µM (inactive) | 17.5 µM (inactive) | 22 µM (inactive) | 19.6 µM (inactive) | 31.8 µM (inactive) | > 10 µM (inactive) | 22.6 µM (inactive) | 42.9 µM (inactive) | 15.4 µM (inactive) | 21.9 µM (inactive) | 13.1 µM (inactive) | 19.6 µM (inactive) | – | 15.8 µM (inactive) | 23.1 µM (inactive) | 29.2 µM (inactive) | 19.5 µM (inactive) | 16.3 µM (inactive) | 14.6 µM (inactive) | 17 µM (inactive)
NNC(=O)CCSc1ccccc1 | > 100 µM (inactive) | > 100 µM (inactive) | > 100 µM (inactive) | > 100 µM (inactive) | > 100 µM (inactive) | > 100 µM (inactive) | > 100 µM (inactive) | > 100 µM (inactive) | > 100 µM (inactive) | > 100 µM (inactive) | – | > 100 µM (inactive) | > 100 µM (inactive) | > 100 µM (inactive) | > 100 µM (inactive) | > 100 µM (inactive) | > 100 µM (inactive) | > 100 µM (inactive) | > 100 µM (inactive) | > 100 µM (inactive)
Cc1cc(NCCCCCCCCCC[n+]2c(C)cc(N)c3ccccc32)c2ccccc2n1 | 1.87 µM (inactive) | 0.861 µM (active) | 0.0708 µM (active) | 1.86 µM (inactive) | 0.0638 µM (active) | 0.546 µM (active) | 4.36 µM (inactive) | 1.82 µM (inactive) | 0.253 µM (active) | 1.43 µM (inactive) | 1.83 µM (inactive) | 1.84 µM (inactive) | – | 0.209 µM (active) | 1.42 µM (inactive) | 2.49 µM (inactive) | 0.313 µM (active) | 0.112 µM (active) | 0.029 µM (active) | 0.0721 µM (active)
N#Cc1nc(CCCCCN2C(=O)c3ccccc3C2=O)oc1N | > 100 µM (inactive) | > 100 µM (inactive) | > 100 µM (inactive) | 25.7 µM (inactive) | > 100 µM (inactive) | > 100 µM (inactive) | > 100 µM (inactive) | > 100 µM (inactive) | 4.84 µM (inactive) | > 100 µM (inactive) | – | > 100 µM (inactive) | > 100 µM (inactive) | > 100 µM (inactive) | > 100 µM (inactive) | > 100 µM (inactive) | > 100 µM (inactive) | > 100 µM (inactive) | 21.1 µM (inactive) | –
Cc1cccc(Cn2c3c(c4cc(O)ccc42)C(=O)c2ccccc2C3=O)c1 | > 91.2 µM (inactive) | 3.89 µM (inactive) | 15.4 µM (inactive) | 24.3 µM (inactive) | 25.6 µM (inactive) | 12.6 µM (inactive) | 4.58 µM (inactive) | 15.5 µM (inactive) | – | 36.6 µM (inactive) | – | 31 µM (inactive) | 14.2 µM (inactive) | 3.05 µM (inactive) | 1.88 µM (inactive) | > 100 µM (inactive) | 23.2 µM (inactive) | 18.3 µM (inactive) | 5.92 µM (inactive) | –
N#Cc1c(-c2ccc([N+](=O)[O-])cc2)cc(-c2ccc(Nc3ccnc4cc(C(F)(F)F)ccc34)cc2)[nH]c1=O | > 100 µM (inactive) | > 100 µM (inactive) | > 100 µM (inactive) | > 100 µM (inactive) | > 100 µM (inactive) | > 100 µM (inactive) | > 100 µM (inactive) | 52.2 µM (inactive) | > 100 µM (inactive) | > 100 µM (inactive) | – | > 100 µM (inactive) | > 100 µM (inactive) | 22.2 µM (inactive) | > 100 µM (inactive) | 71.3 µM (inactive) | > 100 µM (inactive) | > 100 µM (inactive) | > 100 µM (inactive) | –
Brc1ccc(/N=C/C=C(\Nc2ccc(Br)cc2)C23CC4CC(CC(C4)C2)C3)cc1 | 8.73 µM (inactive) | 10 µM (inactive) | 16.9 µM (inactive) | 15.7 µM (inactive) | 6.12 µM (inactive) | 1.91 µM (inactive) | 19.1 µM (inactive) | 14.8 µM (inactive) | 10.9 µM (inactive) | 10.2 µM (inactive) | 13.6 µM (inactive) | 18.1 µM (inactive) | – | 9.04 µM (inactive) | 12.7 µM (inactive) | 14.5 µM (inactive) | 11 µM (inactive) | 9.33 µM (inactive) | 14.7 µM (inactive) | 2.95 µM (inactive)
Cc1cc2ncc3c(=O)n(NS(=O)(=O)c4ccc(N)cc4)ccc3n2n1 | > 100 µM (inactive) | > 100 µM (inactive) | > 100 µM (inactive) | > 100 µM (inactive) | > 100 µM (inactive) | > 100 µM (inactive) | > 100 µM (inactive) | > 100 µM (inactive) | > 100 µM (inactive) | > 100 µM (inactive) | 54.2 µM (inactive) | > 100 µM (inactive) | – | > 100 µM (inactive) | > 100 µM (inactive) | > 100 µM (inactive) | > 100 µM (inactive) | > 100 µM (inactive) | – | > 100 µM (inactive)
CC(C)CCn1c(=O)c2c(=O)[nH][nH]c2c2ccccc21 | – | > 100 µM (inactive) | > 100 µM (inactive) | > 100 µM (inactive) | > 100 µM (inactive) | > 100 µM (inactive) | > 100 µM (inactive) | > 100 µM (inactive) | > 100 µM (inactive) | – | > 100 µM (inactive) | > 100 µM (inactive) | > 100 µM (inactive) | > 100 µM (inactive) | > 100 µM (inactive) | > 100 µM (inactive) | > 100 µM (inactive) | > 100 µM (inactive) | > 100 µM (inactive) | > 100 µM (inactive)
C=C(c1ccc2[nH]c(NC(=O)OC)nc2c1)c1cccs1 | 2.26 µM (inactive) | 0.051 µM (active) | 0.129 µM (active) | 0.679 µM (active) | 0.118 µM (active) | 0.0986 µM (active) | 0.206 µM (active) | 0.22 µM (active) | 0.0813 µM (active) | 2.02 µM (inactive) | 0.975 µM (active) | – | < 0.01 µM (active) | 0.0675 µM (active) | – | 0.309 µM (active) | 0.0925 µM (active) | 0.0703 µM (active) | 0.316 µM (active) | –
COC(=O)[C@@]12CCCC(=O)[C@@H]1[C@H]1CCC[C@H]12 | > 100 µM (inactive) | > 100 µM (inactive) | > 100 µM (inactive) | > 100 µM (inactive) | > 100 µM (inactive) | > 100 µM (inactive) | > 100 µM (inactive) | > 100 µM (inactive) | > 100 µM (inactive) | > 100 µM (inactive) | > 100 µM (inactive) | > 100 µM (inactive) | > 100 µM (inactive) | > 100 µM (inactive) | > 100 µM (inactive) | > 100 µM (inactive) | > 100 µM (inactive) | > 100 µM (inactive) | > 100 µM (inactive) | –
O=c1c(SSc2coc3cc(F)ccc3c2=O)coc2cc(F)ccc12 | – | 6.68 µM (inactive) | 25.1 µM (inactive) | > 100 µM (inactive) | 4.43 µM (inactive) | 2.65 µM (inactive) | 19.8 µM (inactive) | 35.2 µM (inactive) | 20.7 µM (inactive) | 26.3 µM (inactive) | – | 17.7 µM (inactive) | 31.3 µM (inactive) | 5.14 µM (inactive) | – | 47.3 µM (inactive) | 14.6 µM (inactive) | 13.7 µM (inactive) | 22.3 µM (inactive) | 8.59 µM (inactive)
c1ccc(-c2nnc(CCCCCCCCc3nnc(-c4ccccc4)o3)o2)cc1 | > 100 µM (inactive) | > 100 µM (inactive) | > 100 µM (inactive) | > 100 µM (inactive) | 50.5 µM (inactive) | 48.9 µM (inactive) | 97.3 µM (inactive) | > 100 µM (inactive) | 25.9 µM (inactive) | > 100 µM (inactive) | 50.9 µM (inactive) | > 100 µM (inactive) | – | 55.6 µM (inactive) | > 100 µM (inactive) | > 100 µM (inactive) | 38.2 µM (inactive) | > 100 µM (inactive) | – | 30.6 µM (inactive)
CO/N=C(\C(=O)Nn1cn[n+](CC(=O)[O-])c1)c1csc(N)n1 | – | – | > 10 µM (inactive) | > 10 µM (inactive) | > 10 µM (inactive) | > 10 µM (inactive) | > 10 µM (inactive) | > 10 µM (inactive) | – | > 10 µM (inactive) | > 10 µM (inactive) | > 10 µM (inactive) | > 10 µM (inactive) | > 10 µM (inactive) | > 10 µM (inactive) | > 10 µM (inactive) | > 10 µM (inactive) | > 10 µM (inactive) | > 10 µM (inactive) | > 10 µM (inactive)
